In PubChem BioAssay AID1963832 (Molecular Pharmacology Branch, DTP, NCI, 2024):

System: 885724-159-R-J1-PDC complex spheroid viability
Test: Anticancer human tumor 885724-159-R-J1-PDC patient-derived pancreatic adenocarcinoma cell line growth inhibition [POLQ]
Conditions: for IC50: curve of first compound; for viability, T/C: stronger effect = lower value; active means viability on the fitted dose curve at most 10% of control; inactive means the rest
Description: Multicellular complex tumor spheroid response to Polymerase (POL) inhibitors (novobiocin, ART-558, RP6685) in combination with a variety of drugs and investigational agents in selected tumor cell lines
The POL inhibitors (novobiocin, ART-558, and RP6685) were evaluated both individually and in combination with standard of care and investigational anticancer small molecules within a complex spheroid model of solid tumors. . Complex spheroids include a stromal component modeled by human endothelial cells (HUVEC) and fibroblasts modeled by human mesenchymal stem cells (MSCs). The concentration ranges selected for each drug and investigational agent were based upon clinically achievable concentrations if the clinical Cmax of the agent was known.
Compounds. The drugs and investigational agents: novobiocin (NSC847541), ART-558 (NSC835418), RP-6685 (NSC848927), peposertib (NSC802822), ceralasertib (NSC780249), elimusertib (NSC800525), camonsertib (NSC841442), AZD-1390 (NSC803789), olaparib (NSC753686), talazoparib (NSC767125), rucaparib (NSC756644), sotorasib (NSC818433), MRTX-1133 (NSC836407), SN-38 (NSC673596), topotecan (NSC609699), epotoside (NSC141540), doxorubicin (NSC123127), gemcitabine (NSC613327), 5-fluorouracil (NSC19893), paclitaxel (NSC125973), vemurafenib (NSC761431), MSA-2 (NSC828583), SN-011 (NSC837082), adavosertib (NSC754352), prexasertib (NSC758257), carboplatin (NSC241240) and oxaliplatin (NSC266046), were obtained from the National Cancer Institute (NCI) Developmental Therapeutics Program Chemical Repository (21). The FDA-approved anticancer drug set is available from the Developmental Therapeutics Program at https://dtp.cancer.gov/organization/dscb/obtaining/. […] The stock solutions were prepared in dimethyl sulfoxide (DMSO, Sigma-Aldrich, St. Louis, MO, cat. D2650), except for the platinum compounds which were prepared in saline (Quality Biological, Gaithersburg, MD, cat. 114-055-101), at 800-fold the tested concentration and stored at -70 degrees C prior to their use. All drugs and investigational agents were tested over a range starting from a high concentration at or near the clinical Cmax and decreasing in half-log increments. If the clinical Cmax for an agent had not been determined, the highest concentration tested was 10 microM, except for SN-38, which was tested at a high concentration of 1 microM.
Cell Culture. All cells were maintained in an incubator at 37 degrees C and 5% CO2 with 95% humidity. The PDC lines were cultured according to standard operating procedures established by the NCI PDMR (https://pdmr.cancer.gov). Table 3 of the manuscript, lists the cell lines along with the number of the three cell types plated to form the mct-spheroids and media for tumor cell growth. After thawing, all PDC lines, except 997537-175-T-J1-PDC and 415267-285-R-J2-PDC, were cultured in Matrigel-coated flasks prepared with a working solution of 1X Ham's F-12 nutrient mix, without supplementation (Thermo Fisher Scientific, cat. 11765054), 100 U/mL penicillin-streptomycin (Thermo Fisher Scientific, cat. 15140122), and 2.5% Matrigel (Corning Inc., Corning, NY, cat. 354248) for the first three passages. The two PDC lines 997537-175-T-J1-PDC and 415267-285-R-J2-PDC were cultured on uncoated flasks. The 857933-349-R-J2-PDC line was cultured in 6C/Colon 1B media containing advanced DMEM/F-12 (Thermo Fisher Scientific, cat. 12634028), 10 mM HEPES (Thermo Fisher Scientific, cat. 15630080), 1X GlutaMAX supplement (Thermo Fisher Scientific, cat. 35050061), 0.1 mg/mL primocin (InvivoGen, San Diego, CA, cat. ant-pm-2), 10% defined fetal bovine serum, heat inactivated (HyClone Laboratories Inc., Logan, UT, cat. SH30070.03HI), 50% L-WRN conditioned media (ATCC, cat. CRL-3276), 1.25 mM N-Acetyl-L-cysteine (Sigma-Aldrich, cat. A9165), 10 mM nicotinamide (Sigma-Aldrich, cat. N0636), 1X B-27 supplement (Thermo Fisher Scientific, cat. 17504044), 1X N-2 supplement (Thermo Fisher Scientific, cat. […]

[1] = second compound 0.0316 µM, first compound 0.0316 µM
[2] = second compound 0.0316 µM, first compound 0.1 µM
[3] = second compound 0.0316 µM, first compound 0.316 µM
[4] = second compound 0.0316 µM, first compound 1 µM
[5] = second compound 0.0316 µM, first compound 3.16 µM
[6] = second compound 0.0316 µM, first compound 10 µM
[7] = second compound 0.1 µM, first compound 0.0316 µM
[8] = second compound 0.1 µM, first compound 0.1 µM
[9] = second compound 0.1 µM, first compound 0.316 µM
[10] = second compound 0.1 µM, first compound 1 µM
[11] = second compound 0.1 µM, first compound 3.16 µM
[12] = second compound 0.1 µM, first compound 10 µM
[13] = second compound 0.316 µM, first compound 0.0316 µM
[14] = second compound 0.316 µM, first compound 0.1 µM
[15] = second compound 0.316 µM, first compound 0.316 µM
[16] = second compound 0.316 µM, first compound 1 µM
[17] = second compound 0.316 µM, first compound 3.16 µM
[18] = second compound 0.316 µM, first compound 10 µM
[19] = second compound 1 µM, first compound 0.0316 µM
[20] = second compound 1 µM, first compound 0.1 µM
[21] = second compound 1 µM, first compound 0.316 µM
[22] = second compound 1 µM, first compound 1 µM
[23] = second compound 1 µM, first compound 3.16 µM
[24] = second compound 1 µM, first compound 10 µM
[25] = second compound 3.16 µM, first compound 0.0316 µM
[26] = second compound 3.16 µM, first compound 0.1 µM
[27] = second compound 3.16 µM, first compound 0.316 µM
[28] = second compound 3.16 µM, first compound 1 µM
[29] = second compound 3.16 µM, first compound 3.16 µM
[30] = second compound 3.16 µM, first compound 10 µM
[31] = second compound 10 µM, first compound 0.0316 µM
[32] = second compound 10 µM, first compound 0.1 µM
[33] = second compound 10 µM, first compound 0.316 µM
[34] = second compound 10 µM, first compound 1 µM
[35] = second compound 10 µM, first compound 3.16 µM
[36] = second compound 10 µM, first compound 10 µM
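Further: spheroids exposed to compounds for 7 days.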

C#Cc1c(F)ccc2cc(O)cc(-c3ncc4c(N5CC6CCC(C5)N6)nc(OCC56CCCN5CC(F)C6)nc4c3F)c12 (centres undefined) + COC1C(OC(N)=O)C(O)C(Oc2ccc3c(O)c(NC(=O)c4ccc(O)c(CC=C(C)C)c4)c(=O)oc3c2C)OC1(C)C
2670 nM: IC50 (second compound 1 µM)
2380 nM: IC50 (second compound 0.316 µM)
2580 nM: IC50 (second compound 3.16 µM)
2750 nM: IC50 (second compound 0.0316 µM)
inactive: viability, T/C [1] 104% | viability, T/C [2] 101% | viability, T/C [3] 88.5% | viability, T/C [4] 76.8% | viability, T/C [5] 45.2% | viability, T/C [6] 21.7% | viability, T/C [7] 104% | viability, T/C [8] 94.3% | viability, T/C [9] 93% | viability, T/C [10] 72.1% | viability, T/C [11] 44% | viability, T/C [12] 21.7% | viability, T/C [13] 95.7% | viability, T/C [14] 107% | viability, T/C [15] 88.7% | viability, T/C [16] 76.6% | viability, T/C [17] 40.9% | viability, T/C [18] 22.6% | viability, T/C [19] 97.9% | viability, T/C [20] 100% | viability, T/C [21] 90% | viability, T/C [22] 76.5% | viability, T/C [23] 45.2% | viability, T/C [24] 20.8% | viability, T/C [25] 94.9% | viability, T/C [26] 97.2% | viability, T/C [27] 90.3% | viability, T/C [28] 67.2% | viability, T/C [29] 47.8% | viability, T/C [30] 22.3% | viability, T/C [31] 99.4% | viability, T/C [32] 92.6% | viability, T/C [33] 95.2% | viability, T/C [34] 73.9% | viability, T/C [35] 49.4% | viability, T/C [36] 21.9%
2970 nM: IC50 (second compound 10 µM)
2490 nM: IC50 (second compound 0.1 µM)

CC(C)n1c(=O)n(C)c2cnc3cc(F)c(-c4ccc(OCCCN5CCCCC5)nc4)cc3c21 + COC1C(OC(N)=O)C(O)C(Oc2ccc3c(O)c(NC(=O)c4ccc(O)c(CC=C(C)C)c4)c(=O)oc3c2C)OC1(C)C
> 10000 nM: IC50 (second compound 0.0316 µM) | IC50 (second compound 0.1 µM) | IC50 (second compound 0.316 µM) | IC50 (second compound 1 µM) | IC50 (second compound 3.16 µM) | IC50 (second compound 10 µM)
inactive: viability, T/C [1] 89.6% | viability, T/C [2] 89.6% | viability, T/C [3] 97.5% | viability, T/C [4] 88.9% | viability, T/C [5] 88.3% | viability, T/C [6] 84.4% | viability, T/C [7] 96.5% | viability, T/C [8] 99.4% | viability, T/C [9] 100% | viability, T/C [10] 100% | viability, T/C [11] 91.1% | viability, T/C [12] 105% | viability, T/C [13] 99.4% | viability, T/C [14] 86.6% | viability, T/C [15] 93.5% | viability, T/C [16] 93.7% | viability, T/C [17] 91.8% | viability, T/C [18] 86.1% | viability, T/C [19] 104% | viability, T/C [20] 96.5% | viability, T/C [21] 104% | viability, T/C [22] 90% | viability, T/C [23] 97% | viability, T/C [24] 77.8% | viability, T/C [25] 99.5% | viability, T/C [26] 92.5% | viability, T/C [27] 94.3% | viability, T/C [28] 98% | viability, T/C [29] 98.7% | viability, T/C [30] 93.2% | viability, T/C [31] 100% | viability, T/C [32] 94.9% | viability, T/C [33] 114% | viability, T/C [34] 91.9% | viability, T/C [35] 88.8% | viability, T/C [36] 93.2%
